Results reported in ChEMBL document CHEMBL1137452, “Synthesis of disulfide esters of dialkylaminocarbothioic acid as potent, non-detergent spermicidal agents” (Bioorg Med Chem, 2007).
Values after ≈ are worked out from the molar mass of the structure shown. Active and inactive are the calls of the source. The calls are words filed in the database; no cut-off is given here.

Tests used:
[1] = tested on: Candida albicans; test: Antifungal activity against Candida albicans after 48 hrs by broth micro dilution technique; type: functional, organism-based
[2] = tested on: Candida parapsilosis; test: Antifungal activity against Candida parapsilosis ATCC 22019 after 48 hrs by broth micro dilution technique; type: functional, organism-based; settings: Lodderomyces parapsilosis, ATCC 22019, 48 h
[3] = organism: Homo sapiens; test: Spermicidal activity against human spermatozoa; type: functional
[4] = tested on: Candida albicans; test: Antifungal activity against Candida albicans ATCC 60193 after 48 hrs by broth micro dilution technique; type: functional, organism-based; settings: ATCC 60193, 48 h
[5] = tested on: Candida albicans; test: Antifungal activity against Candida albicans MTCC 183 after 48 hrs by broth micro dilution technique; type: functional, organism-based; settings: MTCC 183, 48 h
[6] = tested on: Candida albicans; test: Antifungal activity against Candida albicans ATCC 10231 after 48 hrs by broth micro dilution technique; type: functional, organism-based; settings: ATCC 10231, 48 h
[7] = tested on: Pichia kudriavzevii; test: Antifungal activity against Candida krusei ATCC 6258 after 48 hrs by broth micro dilution technique; type: functional, organism-based; settings: ATCC 6258, 48 h
[8] = tested on: Candida albicans; test: Antifungal activity against Candida albicans ATCC 10453 after 48 hrs by broth micro dilution technique; type: functional, organism-based; settings: ATCC 10453, 48 h
[9] = tested on: Candida albicans; test: Antifungal activity against Candida albicans ATCC 66027 after 48 hrs by broth micro dilution technique; type: functional, organism-based; settings: ATCC 66027, 48 h
[10] = tested on: Candida albicans; test: Antifungal activity against Candida albicans MTCC 1346 after 48 hrs by broth micro dilution technique; type: functional, organism-based; settings: MTCC 1346, 48 h
[11] = organism: Homo sapiens; test: Spermicidal activity against human spermatozoa at 1.0% w/v; type: functional

Structure (SMILES) | IC50 [1] [µg/mL] | MIC [1] [µg/mL] | IC50 [2] [µg/mL] | MIC [2] [µg/mL] | MEC [3] [%w/v] | IC50 [4] [µg/mL] | MIC [4] [µg/mL] | IC50 [5] [µg/mL] | MIC [5] [µg/mL] | IC50 [6] [µg/mL] | MIC [6] [µg/mL] | IC50 [7] [µg/mL] | MIC [7] [µg/mL] | IC50 [8] [µg/mL] | MIC [8] [µg/mL] | IC50 [9] [µg/mL] | MIC [9] [µg/mL] | IC50 [10] [µg/mL] | MIC [10] [µg/mL] | Activity [11]
O=C(SCC(CN1CCCCC1)SSC(CSC(=O)N1CCCCC1)CN1CCCCC1)N1CCCCC1 (racemic) | > 50 | > 50 | > 50 | > 50 | 0.05 | > 50 | > 50 | > 50 | > 50 | > 50 | > 50 | > 50 | > 50 | > 50 | > 50 | > 50 | > 50 | > 50 | > 50 | 
CCN(CC)C(=O)SCC(CN1CCOCC1)SSC(CSC(=O)N(CC)CC)CN1CCOCC1 (configuration not stated) |  |  |  |  |  |  |  |  |  |  |  |  |  |  |  |  |  |  |  | inactive
CN1CCN(CC(CSC(=O)N2CCCC2)SSC(CSC(=O)N2CCCC2)CN2CCN(C)CC2)CC1 (racemic) |  |  |  |  | 1 |  |  |  |  |  |  |  |  |  |  |  |  |  |  | 
O=C(SCC(CN1CCCC1)SSC(CSC(=O)N1CCOCC1)CN1CCCC1)N1CCOCC1 (racemic) |  |  |  |  | 0.1 |  |  |  |  |  |  |  |  |  |  |  |  |  |  | 
CCN(C)C(=O)SCC(CN1CCN(C)CC1)SSC(CSC(=O)N(C)CC)CN1CCN(C)CC1 (racemic) |  |  |  |  |  |  |  |  |  |  |  |  |  |  |  |  |  |  |  | inactive
OC(Cn1cncn1)(Cn1cncn1)c1ccc(F)cc1F [FLUCONAZOLE] | 0.13 (≈ 0.424 µM) | 0.5 (≈ 1.63 µM) | 0.21 (≈ 0.686 µM) | 1 (≈ 3.27 µM) | 0.1 | 0.1 (≈ 0.327 µM) | 0.25 (≈ 0.816 µM) | 0.26 (≈ 0.849 µM) | 0.5 (≈ 1.63 µM) | 0.35 (≈ 1.14 µM) | 1 (≈ 3.27 µM) | 1.38 (≈ 4.51 µM) | 4 (≈ 13.1 µM) | 0.63 (≈ 2.06 µM) | 1 (≈ 3.27 µM) | 0.18 (≈ 0.588 µM) | 0.25 (≈ 0.816 µM) | 0.58 (≈ 1.89 µM) | 2 (≈ 6.53 µM) | 
O=C(SCC(CN1CCCCC1)SSC(CSC(=O)N1CCOCC1)CN1CCCCC1)N1CCOCC1 (racemic) |  |  |  |  | 0.5 |  |  |  |  |  |  |  |  |  |  |  |  |  |  | 
O=C(SCC(CN1CCCC1)SSC(CSC(=O)N1CCCC1)CN1CCCC1)N1CCCC1 (racemic) | 43 (≈ 78.6 µM) | > 50 | 31 (≈ 56.7 µM) | 50 (≈ 91.4 µM) | 0.002 | > 50 | > 50 | 29 (≈ 53 µM) | 50 (≈ 91.4 µM) | > 50 | > 50 | 33 (≈ 60.3 µM) | 50 (≈ 91.4 µM) | > 50 | > 50 | 42 (≈ 76.8 µM) | > 50 | > 50 | > 50 | 
CCCCCCCCCc1ccc(OCCOCCOCCOCCOCCOCCOCCOCCOCCO)cc1 [NONOXYNOL 9] | 46 (≈ 74.6 µM) | > 50 | 47 (≈ 76.2 µM) | 50 (≈ 81.1 µM) | 0.05 | > 50 | > 50 | 41 (≈ 66.5 µM) | > 50 | > 50 | > 50 | 48 (≈ 77.8 µM) | 50 (≈ 81.1 µM) | > 50 | > 50 | > 50 | > 50 | > 50 | > 50 | 
O=C(SCC(CN1CCCC1)SSC(CSC(=O)N1CCCCC1)CN1CCCC1)N1CCCCC1 (racemic) | 47 (≈ 81.7 µM) | > 50 | 48 (≈ 83.5 µM) | 50 (≈ 87 µM) | 0.002 | 41 (≈ 71.3 µM) | > 50 | 32 (≈ 55.7 µM) | 50 (≈ 87 µM) | 48 (≈ 83.5 µM) | 50 (≈ 87 µM) | 30 (≈ 52.2 µM) | 50 (≈ 87 µM) | > 50 | > 50 | 43 (≈ 74.8 µM) | > 50 | 48 (≈ 83.5 µM) | 50 (≈ 87 µM) | 
O=C(SCC(CN1CCOCC1)SSC(CSC(=O)N1CCCC1)CN1CCOCC1)N1CCCC1 (racemic) |  |  |  |  |  |  |  |  |  |  |  |  |  |  |  |  |  |  |  | inactive
CN1CCN(CC(CSC(=O)N2CCCCC2)SSC(CSC(=O)N2CCCCC2)CN2CCN(C)CC2)CC1 (racemic) | 47 (≈ 74.2 µM) | 50 (≈ 79 µM) | 40 (≈ 63.2 µM) | 50 (≈ 79 µM) | 0.05 | 43 (≈ 67.9 µM) | > 50 | > 50 | 50 (≈ 79 µM) | > 50 | 50 (≈ 79 µM) | 35 (≈ 55.3 µM) | 50 (≈ 79 µM) | 46 (≈ 72.7 µM) | > 50 | 40 (≈ 63.2 µM) | > 50 | > 50 | 50 (≈ 79 µM) | 
O=C(SCC(CN1CCCCC1)SSC(CSC(=O)N1CCCC1)CN1CCCCC1)N1CCCC1 (racemic) | > 50 | > 50 | 48 (≈ 83.5 µM) | 50 (≈ 87 µM) | 0.05 | > 50 | > 50 | 42 (≈ 73.1 µM) | > 50 | > 50 | > 50 | 49 (≈ 85.2 µM) | 50 (≈ 87 µM) | > 50 | > 50 | > 50 | > 50 | > 50 | > 50 | 
CCN(CC)C(=O)SCC(CN1CCCCC1)SSC(CSC(=O)N(CC)CC)CN1CCCCC1 (racemic; 29) |  |  |  |  |  |  |  |  |  |  |  |  |  |  |  |  |  |  |  | inactive
O=C(SCC(CN1CCOCC1)SSC(CSC(=O)N1CCOCC1)CN1CCOCC1)N1CCOCC1 (racemic) |  |  |  |  |  |  |  |  |  |  |  |  |  |  |  |  |  |  |  | inactive
CCN(CC)C(=O)SCC(CN1CCCCC1)SSC(CSC(=O)N(CC)CC)CN1CCCCC1 (racemic; 26) |  |  |  |  |  |  |  |  |  |  |  |  |  |  |  |  |  |  |  | inactive
O=C(SCC(CN1C=CC=CC=C1)SSC(CSC(=O)N1CCOCC1)CN1C=CC=CC=C1)N1CCOCC1 (racemic) | > 50 | > 50 | 39 (≈ 62.6 µM) | 50 (≈ 80.3 µM) | 0.05 | 42 (≈ 67.4 µM) | 50 (≈ 80.3 µM) | 25 (≈ 40.1 µM) | 50 (≈ 80.3 µM) | > 50 | > 50 | 32 (≈ 51.4 µM) | 50 (≈ 80.3 µM) | > 50 | > 50 | > 50 | > 50 | 35 (≈ 56.2 µM) | 50 (≈ 80.3 µM) | 
O=C(SCC(CN1CCOCC1)SSC(CSC(=O)N1CCCCC1)CN1CCOCC1)N1CCCCC1 (racemic) |  |  |  |  | 0.1 |  |  |  |  |  |  |  |  |  |  |  |  |  |  | 
O=C(SCC(CN1C=CC=CC=C1)SSC(CSC(=O)N1CCCC1)CN1C=CC=CC=C1)N1CCCC1 (racemic) | 50 (≈ 84.6 µM) | > 50 | 42 (≈ 71.1 µM) | 50 (≈ 84.6 µM) | 0.05 | 42 (≈ 71.1 µM) | 50 (≈ 84.6 µM) | 26 (≈ 44 µM) | 50 (≈ 84.6 µM) | > 50 | > 50 | 32 (≈ 54.2 µM) | 50 (≈ 84.6 µM) | > 50 | > 50 | > 50 | > 50 | 50 (≈ 84.6 µM) | 50 (≈ 84.6 µM) | 
CCN(C)C(=O)SCC(CN1CCCCC1)SSC(CSC(=O)N(C)CC)CN1CCCCC1 (racemic) |  |  |  |  |  |  |  |  |  |  |  |  |  |  |  |  |  |  |  | inactive
